In US20250054573A1, “METHOD OF CHARACTERISING A DNA SAMPLE” (Cambridge Enterprise Limited, priority 2021, published 2025):

System: human cancer cell lines
Assay: Kendall's Tau correlation of CIN signature activities with drug response (AUC, PRISM drug repurposing screen) across cancer cell lines
Type: cell-based
Details: for tau (Kendall's Tau), CIN signature activity vs drug response: drug AUC, PRISM screen
Excerpt: Calculating signature activities for cell lines. […] Combined cell line log R and BAF data was split into sample-specific log R and BAF files. […] In this pipeline, while the rescued SNPs allow for the identification of additional segments from their Log R, by construction their average BAF is never equal to 0 or 1 even in the presence of LOH. This biases purity estimates towards lower values and renders the copy-number fitting inaccurate.
Where nT is the total number of copies in the tumour, ρ is the purity and ψ is the average tissue ploidy. Akin to ASCAT, we picked the purity and ploidy combination that minimized the distance between nr and integer values. […] As fitting of absolute copy number to non-matched cell line data is inherently more challenging than other instances, all cell lines where ASCAT identified a plausible solution were visually inspected to determine fit suitability and excluded cell lines where absolute copy number profiles were incorrect or poorly fitted. […] For identifying the signature activities, we used the linear combination decomposition function from YAPSA (R package, v1.12.0) and the 17 signatures of CIN.
CRISPR, RNAi and drug response data integration.
Correlation of signatures with target gene KO, KD and drug inhibition. Kendall's Tau correlation was performed between CIN signature activities and gene essentiality scores from the genetic perturbation screens. Correlations were filtered for tau<−0.07 and q-value<0.05 after multiple testing corrections using the Benjamini-Hochberg method. […] These targets were then used to test correlation of the signature activity with matched drug inhibition of the target measured via AUC.

In the case of `COc1cc2c(cc1O)CC[C@@H]1[C@@H]2CC[C@]2(C)[C@@H](O)CC[C@@H]12` [2-methoxyestradiol], the “tau (Kendall's Tau), CIN signature activity vs drug response” value (shortened to “tau (Kendall's Tau) … vs drug response”) (CIN sig. CX5, Target HIF1A) is reported as −0.1543.

In the case of `Cc1ccc(NC(=O)c2cccc(C(C)(C)C#N)c2)cc1Nc1ccc2ncn(C)c(=O)c2c1` [AZ-628], the “tau (Kendall's Tau) … vs drug response” value (CIN sig. CX1, Target BRAF) is reported as −0.09859, the “tau (Kendall's Tau) … vs drug response” value (CIN sig. CX14, Target BRAF) is reported as −0.1048 and the “tau (Kendall's Tau) … vs drug response” value (CIN sig. CX14, Target RAF1) is reported as −0.1048. The “tau (Kendall's Tau) … vs drug response” value (CIN sig. CX15, Target BRAF) was −0.1189.

With `Cn1cc(CNCC2CCN(c3ncc(C(=O)NO)cn3)CC2)c2ccccc21` [JNJ-26481585] the “tau (Kendall's Tau) … vs drug response” value (CIN sig. CX17, Target HDAC2) was −0.1371 and the “tau (Kendall's Tau) … vs drug response” value (CIN sig. CX17, Target HDAC4) was −0.1371.

In the case of `OC(Cc1ccncc1)C(Cl)(Cl)Cl` (stereo not shown) [PETCM], the “tau (Kendall's Tau) … vs drug response” value (CIN sig. CX9, Target CASP3) is reported as −0.1078.

In the case of `O=C1NC(=O)c2c1c1c3ccccc3[nH]c1c1[nH]c3ccccc3c21` [arcyriaflavin-a], the “association of CX4 activity with drug response, in words” value (CIN sig. CX4, Target CCND1, 297 cancer cell lines) is reported as “correlated with response to inhibition of CCND1”, the “tau (Kendall's Tau) … vs drug response” value (CIN sig. CX4, Target CCND1) is reported as −0.1159 and the “tau (Kendall's Tau) … vs drug response” value (CIN sig. CX13, Target CDK4) is reported as −0.07546.

In the case of `C/C1=C/C[C@@H](/C(C)=C/c2csc(C)n2)OC(=O)C[C@H](O)C(C)(C)C(=O)[C@H](C)[C@@H](O)[C@@H](C)CCC1` [epothilone-d], the “tau (Kendall's Tau) … vs drug response” value (CIN sig. CX9, Target TUBB4B) is reported as −0.07597.

`O=C(c1cc(Cc2n[nH]c(=O)c3ccccc23)ccc1F)N1CCN(C(=O)C2CC2)CC1` [olaparib] was tested, and the “association of CX5 activity with drug response, in words” value (CIN sig. CX5, Target PARP1, 297 cancer cell lines) was “predicted response to olaparib”.
